Active and inactive are the calls of the source. The calls are words filed in the database; no cut-off is given here.
Columns and labels:
HepG2 = assay: Cytotoxicity against human HepG2 cells assessed as decrease in intracellular ATP levels incubated for 72 hrs by Cell Titer-Glo luminescence assay; format: functional; settings: read-out: TC50 (the source's name)
[1] = biological target: T1, Very long chain fatty acid elongase 1 (Homo sapiens, UniProt Q9BW60); assay: Inhibition of ELOVL1 in human HEK293 cells assessed as reduction of C26:0 VLCFA synthesis incubated for 48 hrs by cellular assay; format: cell-based
T1 sequence (Q9BW60 whole entry): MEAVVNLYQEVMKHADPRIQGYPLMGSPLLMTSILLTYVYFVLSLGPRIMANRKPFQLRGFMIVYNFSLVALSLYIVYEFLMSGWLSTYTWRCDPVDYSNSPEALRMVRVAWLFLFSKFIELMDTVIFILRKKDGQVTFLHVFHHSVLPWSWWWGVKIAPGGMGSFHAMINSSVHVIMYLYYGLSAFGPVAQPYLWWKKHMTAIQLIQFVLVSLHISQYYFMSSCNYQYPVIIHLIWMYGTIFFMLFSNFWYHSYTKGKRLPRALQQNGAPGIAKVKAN

[2] = Volume of distribution at steady state in Beagle dog at 0.5 mg/kg, iv upto 48 hrs by LC/MS/MS analysis; format: ADME, organism-based, Canis lupus familiaris; settings: in vivo, read-out: Vdss
[3] = Volume of distribution at steady state in Cynomolgus monkey at 1 mg/kg, iv upto 48 hrs by LC/MS/MS analysis; format: ADME, organism-based, Macaca fascicularis; settings: in vivo, read-out: Vdss
[4] = Cytotoxicity against human THLE-2 cells assessed as decrease in intracellular ATP levels incubated for 72 hrs by Cell Titer-Glo luminescence assay; format: toxicity, cell-based; settings: read-out: TC50
[5] = Half life in Cynomolgus monkey at 1 mg/kg, iv upto 48 hrs by LC/MS/MS analysis; format: ADME, organism-based, Macaca fascicularis; settings: in vivo
[6] = AUC (infinity) in Beagle dog at 3 mg/kg, po upto 24 hrs by LC/MS/MS analysis; format: ADME, organism-based, Canis lupus familiaris; parameters: time < 24 hrs, dose 3 mg/kg, route po; settings: in vivo
[7] = Tmax in Beagle dog at 3 mg/kg, po upto 24 hrs by LC/MS/MS analysis; format: ADME, organism-based, Canis lupus familiaris; settings: in vivo
[8] = Cmax in Sprague-Dawley rat at 3 mg/kg, po upto 24 hrs by LC/MS/MS analysis; format: ADME, organism-based; parameters: dose 3 mg/kg, time < 24 hrs, route po; settings: in vivo
[9] = Cmax in Beagle dog at 3 mg/kg, po upto 24 hrs by LC/MS/MS analysis; format: ADME, organism-based, Canis lupus familiaris; parameters: dose 3 mg/kg, time < 24 hrs, route po; settings: in vivo
[10] = Apparent permeability across apical to basolateral side in wild-type dog MDCK cells by LC-MS analysis; format: ADME, cell-based, Canis lupus familiaris
[11] = biological target: T1, Very long chain fatty acid elongase 1; assay: Inhibition of ELOVL1 in CALD patient-derived human fibroblast assessed as reduction of C26:0 VLCFA synthesis incubated for 48 hrs by cellular assay; format: cell-based
[12] = biological target: T1, Very long chain fatty acid elongase 1; assay: Inhibition of ELOVL1 in AMN 2 patient-derived fibroblast assessed as reduction of C26:0 VLCFA synthesis incubated for 48 hrs by cellular assay; format: cell-based
[13] = biological target: T1, Very long chain fatty acid elongase 1; assay: Inhibition of ELOVL1 in CALD patient-derived human lymphocyte assessed as reduction of C26:0 VLCFA synthesis incubated for 48 hrs by cellular assay; format: cell-based
[14] = biological target: T1, Very long chain fatty acid elongase 1; assay: Inhibition of ELOVL1 in Het […] 1 patient-derived human lymphocyte assessed as reduction of C26:0 VLCFA synthesis incubated for 48 hrs by cellular assay; format: cell-based
Fibroblast [15] = assay: Reduction in C26:0 lysophosphatidyl choline synthesis in primary human AMN patient-derived fibroblast incubated for 48 hrs; format: functional, cell-based; settings: DDE = dose-dependent effect
Fibroblast [16] = assay: Reduction in C26:0/C16:0 lysophosphatidyl choline levels in healthy donor-derived human fibroblast incubated for 48 hrs; format: functional, cell-based
Mus musculus [17] = assay: Reduction of C26:0 LPC level in ABCD1 KO mouse blood at 5 to 20 mg/kg, po qd for 8 months continuous dosing by LC-MS/MS analysis; format: functional, organism-based; settings: dose 5-20 mg/kg
[18] = Reduction of C26:0 /C16:0 LPC level in ABCD1 KO mouse blood at 20 mg/kg, po qd for 8 months by LC-MS/MS analysis relative to control; format: functional; parameters: scale not given: the % may be the effect or the level left; settings: 5840 h
[19] = Reduction in C26:0 LPC level in ABCD1 knock out mouse blood at 0.5 mg/kg, po qd for 105 days by LC-MS/MS analysis relative to control; format: functional; parameters: scale not given: the % may be the effect or the level left; settings: time 105 day
[20] = Reduction in C26:0 LPC level in ABCD1 knock out mouse blood at or above 4 mg/kg, po qd for 105 days by LC-MS/MS analysis relative to control; format: functional; parameters: scale not given: the % may be the effect or the level left; settings: time 105 day
[21] = Reduction in C26:0 LPC level in Cynomolgus monkey plasma at 15 mg/kg, po qd for 13 weeks by LC-MS/MS analysis (reference value: 2.495 ng/ml); format: functional, Macaca fascicularis
[22] = Reduction in C26:0/C16:0 LPC level in ABCD1 knock out mouse CNS at 1 mg/kg, po qd measured after 3 months of dosing by LC-MS/MS analysis; format: functional; parameters: scale not given: the % may be the effect or the level left; settings: 2190 h
[23] = Reduction in C26:0/C16:0 LPC level in ABCD1 knock out mouse CNS at 5 mg/kg, po qd measured after 8 months of dosing by LC-MS/MS analysis; format: functional; parameters: scale not given: the % may be the effect or the level left; settings: 5840 h
[24] = Reduction in C26:0/C16:0 acyl-carnitine levels in ABCD1 knock out mouse CNS at 8 mg/kg, po qd measured after 28 days of dosing by LC-MS/MS analysis; format: functional; parameters: scale not given: the % may be the effect or the level left; settings: time 28 day
Mus musculus [25] = assay: Reversal of loss of thermal pain sensitivity in ABCD1 knock out mouse assessed as increase in latency at 8 to 32 mg/kg, po qd treated for 6 months by Hargreaves test; format: functional, organism-based; settings: dose 8-32 mg/kg
[26] = Toxicity in Sprague-Dawley rat assessed as decrease in body weight at 5 to 50 mg/kg/day, po administered for 8 weeks; format: organism-based; settings: in vivo, 1344 h, dose 5-50 mg/kg/day
[27] = Toxicity in Sprague-Dawley rat assessed as ocular focal cellular disorganization at 5 mg/kg/day, po administered for 8 weeks by microscopic observation analysis; format: organism-based; settings: in vivo, 1344 h
[28] = Toxicity in Sprague-Dawley rat assessed as ocular stromal fibrosis at 5 mg/kg/day, po administered for 8 weeks by microscopic observation analysis; format: organism-based; settings: in vivo, 1344 h
[29] = Toxicity in Sprague-Dawley rat assessed as corneal abnormalities at 5 mg/kg/day, po administered for 8 weeks measured after cessation of dosing; format: organism-based; settings: in vivo, 1344 h
[30] = Toxicity in juvenile Sprague-Dawley rat assessed as stomach lesions at 5 to 75 mg/kg/day, po treatment started from postnatal day 18 to 114 days; format: organism-based; settings: in vivo, dose lower 5 mg/kg/day, time lower 18 day, dose upper 75 mg/kg/day, time upper 114 day
[31] = Toxicity in telemetry-implanted Cynomolgus monkey assessed as higher baseline beta EEG activity at 5 to 20 mg/kg/day,NG administered for 7 days; format: organism-based, Macaca fascicularis; settings: in vivo, po, 168 h, dose 5-20 mg/kg/day, time 7 day
[32] = Toxicity in Cynomolgus monkey assessed as dry and red scaly areas on thorax at 5 to 50 mg/kg/day, po administered for 14 days by macroscopic observation analysis; format: organism-based, Macaca fascicularis; settings: in vivo, 336 h, dose 5-50 mg/kg/day, time 14 day
[33] = Toxicity in Cynomolgus monkey assessed as hyperkeratosis at 5 to 50 mg/kg/day, po administered for 14 days by microscopic observation analysis; format: organism-based, Macaca fascicularis; settings: in vivo, 336 h, dose 5-50 mg/kg/day, time 14 day

IC50 [1]: 13 nM | Vd [2]: 7.5 L/kg | Vd [3]: 3 L/kg | half-life [5]: 5.4 h | AUC(0-inf) [6]: 1250 ng·h/mL | Tmax [7]: 0.5 h | Cmax [8]: 174 ng/mL | Cmax [9]: 261 ng/mL | Papp A→B [10]: 10.1 ×10⁻⁶ cm/s | IC50 [11]: 20 nM | IC50 [12]: 17 nM | IC50 [13]: 15 nM | IC50 [14]: 5 nM
SMILES: O=C(Nc1ccn(-c2ccnc(F)c2)n1)C1(c2ccccc2F)CC1
CC50 (HepG2): > 100000 nM | CC50 at 72 h [4]: > 100000 nM | Activity (Fibroblast [15]): Dde | Activity (Fibroblast [16]): Active | Activity (Mus musculus [17]): Active | Activity [18]: 68% | Activity [19]: 50% | Activity [20]: 85% | Activity [21]: 0.4475 ng/mL | Activity [22]: 25% | Activity [23]: 65% | Activity [24]: 55% | Activity (Mus musculus [25]): Active | Activity [26]: Toxic | Activity [27]: Toxic | Activity [28]: Toxic | Activity [29]: Toxic | Activity [30]: Toxic | Activity [31]: Toxic | Activity [32]: Toxic | Activity [33]: Toxic
